biological target: T1, Phosphatidylinositol 4,5-bisphosphate 3-kinase catalytic subunit delta isoform (Homo sapiens, UniProt O00329); test: PI3Kδ Scintillation Proximity Assay
T1 sequence (O00329 whole entry): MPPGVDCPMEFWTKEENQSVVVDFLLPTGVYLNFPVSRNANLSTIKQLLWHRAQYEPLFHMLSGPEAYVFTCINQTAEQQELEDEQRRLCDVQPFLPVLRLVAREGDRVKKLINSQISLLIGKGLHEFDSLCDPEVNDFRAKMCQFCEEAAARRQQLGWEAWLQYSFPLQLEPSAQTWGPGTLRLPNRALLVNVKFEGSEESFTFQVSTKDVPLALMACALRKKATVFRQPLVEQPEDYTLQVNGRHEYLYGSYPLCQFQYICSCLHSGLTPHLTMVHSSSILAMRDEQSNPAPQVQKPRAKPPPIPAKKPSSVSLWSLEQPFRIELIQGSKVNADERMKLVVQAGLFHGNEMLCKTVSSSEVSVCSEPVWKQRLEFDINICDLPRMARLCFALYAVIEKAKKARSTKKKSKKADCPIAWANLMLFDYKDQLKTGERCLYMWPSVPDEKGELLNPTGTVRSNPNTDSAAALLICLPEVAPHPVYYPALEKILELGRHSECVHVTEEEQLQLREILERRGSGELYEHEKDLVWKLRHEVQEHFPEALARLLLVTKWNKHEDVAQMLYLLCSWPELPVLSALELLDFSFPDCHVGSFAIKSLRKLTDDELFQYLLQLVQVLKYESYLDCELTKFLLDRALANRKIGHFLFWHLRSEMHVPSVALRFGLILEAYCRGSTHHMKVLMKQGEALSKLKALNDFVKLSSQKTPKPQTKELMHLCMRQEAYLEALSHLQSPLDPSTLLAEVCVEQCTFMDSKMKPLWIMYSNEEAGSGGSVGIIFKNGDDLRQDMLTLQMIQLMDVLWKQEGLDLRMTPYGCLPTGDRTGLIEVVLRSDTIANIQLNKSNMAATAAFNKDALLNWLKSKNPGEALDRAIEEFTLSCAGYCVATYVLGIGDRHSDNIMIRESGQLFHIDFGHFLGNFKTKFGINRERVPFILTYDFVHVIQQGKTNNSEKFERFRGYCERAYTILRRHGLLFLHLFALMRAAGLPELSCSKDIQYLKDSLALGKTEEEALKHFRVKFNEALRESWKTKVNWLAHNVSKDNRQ
Procedure: The kinase reaction was conducted in polystyrene 384-well matrix white plate from Thermo Fisher Scientific in a final volume of 25 μL. Inhibitors were first diluted serially in DMSO and added to the plate wells before the addition of other reaction components. The final concentration of DMSO in the assay was 0.5%. The PI3K assays were carried out at room temperature in 20 mM MOPS, pH 6.7, 10 mM MgCl2, 5 mM DTT and CHAPS 0.03%. Reactions were initiated by the addition of ATP, the final reaction mixture consisted of 20 μM PIP2, 20 μM ATP, 0.2 μCi [γ-33P] ATP, 4 nM PI3Kδ. […] 25 mM EDTA, 400 µM ATP. The final concentration of SPA beads was 1.0 mg/mL. After the plate sealing, plates were shaken overnight at room temperature and centrifuged at 1800 rpm for 10 minutes, the radioactivity of the product was determined by scintillation counting on Topcount (Perkin-Elmer).

Row | Structure (SMILES) | IC50 [nM]
1 | CCOc1c(C(C)n2nc(C)c3c(N)ncnc32)cc(Cl)c(C#N)c1C1CN(c2cncc(C#N)c2)C1 (stereo unspecified) [US11433071, Example 330] | < 10
2 | CCOc1c(C(C)n2nc(C)c3c(N)ncnc32)cc(Cl)c(C#N)c1C1CN(c2cncc(C(=O)N(C)C)c2)C1 (stereo unspecified) [US11433071, Example 331] | < 10
3 | CCOc1c(C(C)n2nc(C)c3c(N)ncnc32)cc(Cl)c(C#N)c1C1CN(c2ccc(-c3nnn(C)n3)nc2)C1 (stereo unspecified) [US11433071, Example 336] | < 10
4 | CCOc1c(C(C)n2nc(C)c3c(N)ncnc32)cc(C)c(C#N)c1C1CN(c2cncc(S(C)(=O)=O)c2)C1 (stereo unspecified) [US11433071, Example 335] | < 10
5 | CCOc1c(C(C)n2nc(C)c3c(N)ncnc32)cc(C)c(C#N)c1C1CN(c2cnn(C)c2)C1 (stereo unspecified) [US11433071, Example 343] | < 10
6 | CCOc1c(C(C)n2nc(C)c3c(N)ncnc32)cc(Cl)c(C#N)c1C1CN(N2CC(C#N)C2)C1 (stereo unspecified) [US11433071, Example 342] | < 10

Other lines, results leading:

Row | IC50 [nM] | Structure (SMILES)
7 | < 10 | CCOc1c(C(C)n2nc(C)c3c(N)ncnc32)cc(Cl)c(C#N)c1C1CN(N2CC(COC)C2)C1 (stereo unspecified) [US11433071, Example 341]
8 | < 10 | CCOc1c(C(C)n2nc(C)c3c(N)ncnc32)cc(Cl)c(C#N)c1C1CN(c2ccc(-c3cnn(C)n3)nc2)C1 (stereo unspecified) [US11433071, Example 337]
9 | < 10 | COc1c([C@H](C)n2cc(C)c(=O)c3c(N)ncnc32)cc(Cl)c(C)c1-c1ccc(C[C@@H](C)O)nc1 [US11433071, Example 362]
10 | < 10 | CCOc1c(C(C)n2nc(C)c3c(N)ncnc32)cc(Cl)c(C#N)c1C1CN(c2ccnc(C(=O)N(C)C)c2)C1 (stereo unspecified) [US11433071, Example 334]

biological target: T1, Phosphatidylinositol 4,5-bisphosphate 3-kinase catalytic subunit delta isoform; test: PI3K Enzyme Assay
Procedure: Materials: Lipid kinase substrate, phosphoinositol-4,5-bisphosphate (PIP2), are purchased from Echelon Biosciences (Salt Lake City, Utah). PI3K isoforms α, β, δ and γ are purchased from Millipore (Bedford, Mass.). ATP, MgCl2, DTT, EDTA, MOPS and CHAPS are purchased from Sigma-Aldrich (St. Louis, Mo.).The kinase reaction are conducted in clear-bottom 96-well plate from Thermo Fisher Scientific in a final volume of 24 μL. Inhibitors are first diluted serially in DMSO and added to the plate wells before the addition of other reaction components. The final concentration of DMSO in the assay is 0.5%. The PI3K assays are carried out at room temperature in 20 mM MOPS, pH 6.7, 10 mM MgCl2, 5 mM DTT and CHAPS 0.03%. The reaction mixture is prepared containing 50 μM PIP2, kinase and varying concentration of inhibitors. Reactions are initiated by the addition of ATP containing 2.2 μCi [γ-33P]ATP to a final concentration of 1000 μM. The final concentration of PI3K isoforms α, β, δ and γ in the assay were 1.3, 9.4, 2.9 and 10.8 nM, respectively. Reactions are incubated for 180 minutes and terminated by the addition of 100 μL of 1 M potassium phosphate pH 8.0, 30 mM EDTA quench buffer. […] After the plate sealing, the radioactivity of the product is determined by scintillation counting on Topcount (Perkin-Elmer). […]

Row | Structure (SMILES) | IC50 [nM]
11 | COc1c([C@@H](C)n2cc(C)c(=O)c3c(N)ncnc32)cc(Cl)c(C)c1-c1ccc(C[C@H](C)O)nc1 [US11433071, Example 361] | > 500
